# Source: US20050288347A1, “Certain triazole-based compounds, compositions, and uses thereof” (priority 2004, published 2005)
# Entries after “also recorded” stand apart in the source; their conditions may differ.
# Biological target: protein kinase
# Experiment: HTS ATP-utilizing enzyme assay, off-chip mobility-shift format (Caliper HTS 250)
# Type: biochemical, human
# Conditions: kinase(s) for which the compound exhibits protein kinase inhibitory activity; test compound 10 μM; active = greater than three-sigma from the mean activity of inactive compounds
# In short: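 Kinase reactions ran 2.5 h at 20 to 22 °C with test compound at 10 μM, in a HEPES pH 7.5 master buffer containing Triton X-100 and BSA. Peptide substrate and phosphorylated product separated by mobility shift; inhibition normalized to DMSO (0%) and EDTA (100%) controls, with three-sigma thresholds for hits.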
row,Structure (SMILES),Kinase
1,COCCn1c(SCC(=O)O)nnc1-c1cc2c(C)nn(-c3ccccc3)c2s1,AKT1
2,COc1ccc(NCc2nnc(SCC#N)n2-c2ccccc2OC)cc1,FYN
3,COc1ccccc1-n1c(SCC(=O)O)nnc1-c1cccnc1,AURORA-A
4,CCOc1ccc(NCc2nnc(SCC#N)n2-c2cccc(Cl)c2)cc1,PDGFRR-α and FYN
5,Cc1cc(C)nc(SCc2nnc(SCC#N)n2-c2cccc(Cl)c2)n1,LYNA
6,COc1ccc(-n2c(SCC(=O)O)nnc2-c2ccc(NS(=O)(=O)c3ccc(C)cc3)cc2)cc1,CDK2-cyclinA and CDK2-cyclinE and CDK1
7,COc1ccc(NCc2nnc(SCC(=O)O)n2-c2ccc(OC)cc2)cc1,PDGFRR-α and FYN
8,COc1ccc(-n2c(COc3cccc4ccccc34)nnc2SCC#N)cc1,MAPKAPK-2 and CDK1
9,COc1ccc(-n2c(COc3ccc4ccccc4c3)nnc2SCC(=O)O)cc1,AURORA-A
10,COc1ccc(-n2c(COc3cccc(C)c3)nnc2SC(C)C(=O)O)cc1 (stereo not shown),AURORA-A
11,COc1ccc(-n2c(SCC#N)nnc2-c2cccnc2)cc1,AURORA-A
12,COc1ccc(-n2c(SCC(=O)O)nnc2-c2cccnc2)cc1,AURORA-A
13,O=C(O)CSc1nnc(-c2ccc(O)cc2)n1Cc1ccco1,GSK3-β; also recorded: GSK3-α
14,N#CCSc1nnc(-c2ccc(O)cc2)n1Cc1ccco1,GSK3-β; also recorded: GSK3-α; also recorded: AURORA-A
15,O=C(O)CSc1nnc(CNc2cccc(C(F)(F)F)c2)n1Cc1ccco1,SRC and AURORA-A
16,COc1cccc(OCc2nnc(SCC(=O)O)n2Cc2ccccc2)c1,MSK1
17,Cc1cc(OCc2nnc(SCC(=O)O)n2Cc2ccccc2)ccc1Cl,HCK
18,CC(Sc1nnc(CNc2ccc(Cl)cc2)n1Cc1ccccc1)C(=O)O (stereo not shown),DAPK1
19,N#CCSc1nnc(CNc2ccc(Cl)cc2)n1Cc1ccccc1,MSK1
20,O=C(O)CSc1nnc(CNc2ccc(F)cc2)n1Cc1ccccc1,DAPK1
21,N#CCSc1nnc(COc2cccc3ccccc23)n1Cc1ccccc1,CDK1 and CHEK2
22,CCn1c(SCC(=O)O)nnc1-c1cc2c(C)nn(-c3ccccc3)c2s1,FYN
23,CCn1c(SCC#N)nnc1-c1ccc(S(=O)(=O)N2CCOCC2)cc1,AURORA-A
24,CCn1c(SCC(=O)O)nnc1-c1ccc(S(=O)(=O)N2CCOCC2)cc1,CDK1
25,CCn1c(CNc2cccc(C(F)(F)F)c2)nnc1SCC#N,CDK2 and CDK1 and CHEK2

row,Structure (SMILES),Kinase
1,CCn1c(COc2ccc(OC)cc2)nnc1SCC(=O)O,AKT1
2,CCn1c(COc2cccc3ccccc23)nnc1SCC#N,AURORA-A
3,Cn1c(COc2cccc3ccccc23)nnc1SCC(=O)O,CDK2-cyclinA; also recorded: AURORA-A
4,Cn1c(COc2ccc3ccccc3c2)nnc1SCC(N)=O,FYN
5,COc1ccccc1-n1c(SCC#N)nnc1-c1ccccc1O,AURORA-A
6,COc1ccc(-n2c(SCC(=O)O)nnc2-c2ccccc2OC)cc1,AURORA-A
7,O=C(O)CSc1nnc(-c2ccc(S(=O)(=O)N3CCOCC3)cc2)n1-c1ccccc1,CHEK2
8,COc1ccc(-n2c(SCC(=O)O)nnc2-c2ccc(NC(=O)c3ccccc3)cc2)cc1,CHEK2
9,COc1ccc(-n2c(SC(C)C(=O)O)nnc2-c2ccc(NC(=O)c3ccccc3)cc2)cc1 (stereo not shown),CHEK2; also recorded: AURORA-A
10,COc1ccc(-n2c(SC(C)C(=O)O)nnc2-c2ccc(O)cc2)cc1 (stereo not shown),GSK3-β; also recorded: MAPKAPK-2
11,C=C(C)Cn1c(SCC(=O)O)nnc1-c1ccc(OC)cc1,MSK1
12,COc1ccc(-c2nnc(SCC(=O)N(C)C)n2-c2ccccc2)cc1,PDK1 and SYK and INSR
13,COc1ccc(-c2nnc(SCC(=O)Nc3ccccc3)n2-c2ccccc2)cc1,PRAK and CHEK2
14,COc1ccc(-c2nnc(SCC(=O)N3CCOCC3)n2-c2ccccc2)cc1,INSR and PRAK
15,CNC(=O)CSc1nnc(-c2ccc(OC)cc2)n1-c1ccccc1,SYK and PRAK
16,O=C(O)CSc1nnc(-c2ccc([N+](=O)[O-])cc2)n1CC1CCCO1 (stereo not shown),PDGFRR-α
17,COCCCn1c(SCC(=O)O)nnc1-c1ccc(C(C)(C)C)cc1,CHEK2
18,COc1ccc(-n2c(CNc3cc(C(F)(F)F)ccc3Cl)nnc2SCC#N)cc1,CDK1
19,Cc1ccc(NCc2nnc(SCC#N)n2-c2ccccc2)c(C)c1,AKT1
20,CCn1c(CNc2ccc(C)c(Cl)c2)nnc1SCC(=O)O,PDGFRR-α
21,Cc1ccc(NCc2nnc(SCC#N)n2-c2ccccc2)cc1Cl,AURORA-A
22,CCn1c(CNc2cccc(Cl)c2)nnc1SCC#N,CDK2-cyclinA
23,CCn1c(CNc2cccc(Cl)c2)nnc1SCC(=O)O,CDK2-cyclinA
24,Cn1c(CNc2cccc(Cl)c2)nnc1SCC#N,AURORA-A
25,Cn1c(COc2ccc(Br)cc2)nnc1SCC(=O)O,AURORA-A

row,Structure (SMILES),Kinase
1,CCn1c(COc2ccc(Cl)c(C)c2)nnc1SCC#N,AURORA-A
2,CCn1c(COc2ccc(Cl)c(C)c2)nnc1SCC(=O)O,MSK1
3,Cc1cc(OCc2nnc(SC(C)C(=O)O)n2-c2ccccc2)ccc1Cl (stereo not shown),AURORA-A
4,CCn1c(CNc2ccc(Cl)cc2)nnc1SCC#N,LYNA and DYRK2
5,CCOc1ccc(NCc2nnc(SCC#N)n2-c2ccc(C)cc2)cc1,FYN
6,CCOc1ccc(NCc2nnc(SCC(=O)O)n2-c2ccc(C)cc2)cc1,FYN
7,Cc1ccc(-n2c(CNc3ccc(F)cc3)nnc2SCC(=O)O)cc1,DAPK1; also recorded: AURORA-A
8,COc1ccc(OCc2nnc(SCC(=O)O)n2-c2ccc(C)cc2)cc1,AURORA-A
9,COc1ccc(NCc2nnc(SCC(=O)O)n2-c2ccc(C)cc2)cc1,FYN
10,COc1ccc(NCc2nnc(SCC#N)n2-c2ccc(C)cc2)cc1,FYN and PDGFRR-α and AURORA-A
11,COc1ccc(NCc2nnc(SC(C)C(=O)O)n2-c2ccccc2)cc1 (stereo not shown),FYN( and PDGFRR-α
12,Cc1ccc(-n2c(COc3cccc4ccccc34)nnc2SC(C)C(=O)O)cc1 (stereo not shown),AKT1
13,N#CCSc1nnc(COc2cccc3ccccc23)n1-c1ccccc1,MAPKAPK-2 and CDK1 and CDK5
14,Cc1ccc(NCc2nnc(SCC#N)n2-c2ccc(Cl)cc2)cc1,PDGFRR-α and CDK1
15,COc1ccc(-n2c(CNc3ccc(C)cc3)nnc2SCC(=O)O)cc1,PDGFRR-α
16,O=C(O)CSc1nnc(-c2ccco2)n1CC1CCCO1 (stereo not shown),AURORA-A
17,C=CCn1c(Sc2c(O)nc3ccccc3c2-c2ccccc2)nnc1-c1ccc(Cl)c(Cl)c1,FLT-3
18,COc1cccc(OC(=O)CSc2nnc(CNc3c(C)cccc3C)n2-c2ccccc2)c1,C-TAK1
19,O=C(O)c1ccc(-n2c(S)nnc2-c2cc(C3CC3)n[nH]2)cc1,GSK3-α
20,Cn1c(SCSC#N)nnc1-c1ccc(S(=O)(=O)N2CCOCC2)cc1,GSK3-β
21,COc1ccccc1OCc1nnc(S)n1Cc1ccco1,AURORA-A; also recorded: GSK3-β; also recorded: GSK3-α
22,Cc1ccc(NCc2nnc(S)n2-c2ccccc2)cc1Cl,GSK3-β; also recorded: GSK3-α; also recorded: AURORA-A
23,O=c1c(Sc2nnc(-c3ccccc3)n2C2CCCCC2)c(Br)cnn1-c1ccccc1,GSK3-α
24,COc1ccc(-c2nnc(SCC(=O)Nc3ccccc3Cl)n2-c2ccccc2)cc1,INSR and SYK
25,COc1ccc(-c2nnc(SCC(=O)Nc3cccc(NC(=O)c4ccco4)c3)n2-c2ccccc2)cc1,PRAK and CHEK2 and PKA

row,Structure (SMILES),Kinase
1,COc1ccc(-c2nnc(SCC(=O)Nc3cccc(NC(=O)C4CCCO4)c3)n2-c2ccccc2)cc1 (stereo not shown),PRAK and CHEK2 and PKA
2,COc1ccc(-c2nnc(SCC(=O)Nc3cccc(Cl)c3)n2-c2ccccc2)cc1,PRAK and CHEK2 and AURORA-A
3,Cn1c(SCC(=O)NCc2ccco2)nnc1-c1ccc(NC(=O)c2ccccc2)cc1,CHEK2
4,COc1ccc(-n2c(SCC#N)nnc2-c2ccc(NC(=O)c3ccccc3)cc2)cc1,CHEK2 and AKT1
5,COc1ccc(-n2c(SCC#N)nnc2-c2ccc(NS(=O)(=O)c3ccc(C)cc3)cc2)cc1,CDK2-cyclinA and CDK1 and CDK2-cyclinE
6,COc1ccc(-c2nnc(SCC(=O)NCC3CCCCC3)n2-c2ccccc2)cc1,AKT3
7,O=C(CSc1nnc(-c2ccccc2O)n1Cc1ccco1)OCc1ccccc1,GSK3-α
8,COc1ccccc1-n1c(SCC(=O)OCc2ccccc2)nnc1-c1ccccc1O,KIT
9,O=C(CSc1nnc(-c2ccc(O)cc2)n1Cc1ccccc1)OC1CCCCC1,GSK3-α; also recorded: GSK3-β
10,COCCn1c(SCC(=O)OC2CCCCC2)nnc1-c1cc2ccccc2cc1O,DAPK1
11,Cn1c(SCC(=O)OC2CCCCC2)nnc1-c1cc2ccccc2cc1O,AURORA-A; also recorded: DAPK1; also recorded: c-TAK1
12,Cn1c(SCC(=O)OC2CCCCC2)nnc1-c1ccc(O)cc1,GSK3-α
13,Cc1ccc(NCc2nnc(SCC(=O)OC3CCCCC3)n2-c2ccccc2)cc1Cl,PAK2 and CHEK1
14,CCOC(=O)CSc1nnc(-c2ccc(O)cc2)n1Cc1ccco1,GSK3-β; also recorded: GSK3-α
15,CCOC(=O)CSc1nnc(COc2ccc3ccccc3c2)n1C,MAPKAPK-2
16,CCOC(=O)CSc1nnc(-c2cc3ccccc3cc2O)n1C,FYN
17,CCOC(=O)CSc1nnc(CNc2cc(Cl)ccc2Cl)n1CC,DYRK2
18,CCOC(=O)CSc1nnc(CNc2ccc(C)c(Cl)c2)n1CC1CCCO1 (stereo not shown),CHEK2
19,CCOC(=O)CSc1nnc(CSc2nc3ccccc3s2)n1C,CSK
20,COc1ccc(NCc2nnc(SCC(=O)OC(C)C)n2-c2ccc(OC)cc2)cc1,FYN and CDK2-cyclinE
21,CC(C)OC(=O)CSc1nnc(-c2cccnc2)n1Cc1ccco1,AKT1
22,COCCn1c(SCC(=O)OC(C)C)nnc1-c1cc2ccccc2cc1O,FYN
23,COC(=O)CSc1nnc(CNc2ccc(OC)cc2)n1C,PDGFRR-α and FYN
24,COC(=O)CSc1nnc(CNc2ccc(OC)cc2)n1-c1ccccc1,PDGFRR-α
25,CCn1c(CNc2cccc(C(F)(F)F)c2)nnc1SCC(=O)Oc1ccc(C)cc1,CDK2-cyclinA and CDK1 and CHEK2
